Assay results published in US12139520B2 (priority 2020, dated 2024).
Bridge positions count the residues as written; N and C are the ends. Square brackets hold non-standard residues; d marks the D form. Peptide text beside a SMILES is read from it. Hyp = O=C(O)[C@@H]1C[C@@H](O)CN1

Columns and labels:
hAMY3 receptor = molecular target: T1, hAMY3 receptor (Homo sapiens, UniProt O60896+P30988); test: cAMP assay for in vitro receptor activation, hAMY3-R; format: cell-based; conditions: cAMP assay, hAMY3 receptor; read-out: hAMY3R EC50
T1 sequence (P30988 25-474): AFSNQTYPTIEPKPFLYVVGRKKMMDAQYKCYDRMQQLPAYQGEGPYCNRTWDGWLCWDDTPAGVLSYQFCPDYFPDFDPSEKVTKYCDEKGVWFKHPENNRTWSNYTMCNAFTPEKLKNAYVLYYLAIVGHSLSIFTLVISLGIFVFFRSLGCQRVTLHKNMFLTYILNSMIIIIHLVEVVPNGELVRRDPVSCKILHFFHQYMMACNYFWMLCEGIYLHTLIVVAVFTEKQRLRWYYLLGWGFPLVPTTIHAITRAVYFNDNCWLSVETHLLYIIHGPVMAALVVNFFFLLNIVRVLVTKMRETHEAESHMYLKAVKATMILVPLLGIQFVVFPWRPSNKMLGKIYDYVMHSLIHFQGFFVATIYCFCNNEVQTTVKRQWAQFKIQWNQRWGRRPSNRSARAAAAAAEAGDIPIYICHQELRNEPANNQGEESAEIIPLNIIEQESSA
T1 sequence (O60896 24-148 partner): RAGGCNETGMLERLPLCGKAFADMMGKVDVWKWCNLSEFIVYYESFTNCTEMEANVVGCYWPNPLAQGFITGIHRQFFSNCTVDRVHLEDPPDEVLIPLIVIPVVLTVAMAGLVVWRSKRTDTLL
How it was run: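 Accumulated cAMP was detected by time-resolved FRET one hour after reagent addition. Beforehand, hAMY3-R-overexpressing monoclonal cells (2000/well, DPBS, 0.05% casein, 0.5 mM IBMX) received graded doses of compound for 30 min at room temperature; human amylin served as positive control.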

hAM1 receptor = hAM1 receptor (Homo sapiens, UniProt O60895+Q16602); test: cAMP assay for in vitro receptor activation, hAM1-R; format: cell-based; conditions: cAMP assay, hAM1 receptor; read-out: hAM1R EC50
How it was run: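 Monoclonal stable hAM1-overexpressing cells, thawed from frozen stock; 8000 cells/well in DPBS + 0.05% casein + 0.5 mM IBMX; read-out cAMP.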

[1] = Physical stability of peptide analogues (Thioflavin T fibrillation); format: physicochemical; conditions: maximum ThT signal normalized between hAMY maximum and buffer background; 40° C., shaking, four days; pH 7 per table title
How it was run: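 Peptides in 50 mM sodium acetate pH 4 or 50 mM sodium phosphate pH 7 were preincubated 1 h, mixed with 4 μM ThT, held at 40° C with 700 rpm shaking before each read. Fluorescence (ex 450/em 480 nm) every 10 min for four days; LOESS-smoothed maximum signal normalized in percent between hAMY and buffer.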

Chain of hAM1 receptor (Q16602 23-461): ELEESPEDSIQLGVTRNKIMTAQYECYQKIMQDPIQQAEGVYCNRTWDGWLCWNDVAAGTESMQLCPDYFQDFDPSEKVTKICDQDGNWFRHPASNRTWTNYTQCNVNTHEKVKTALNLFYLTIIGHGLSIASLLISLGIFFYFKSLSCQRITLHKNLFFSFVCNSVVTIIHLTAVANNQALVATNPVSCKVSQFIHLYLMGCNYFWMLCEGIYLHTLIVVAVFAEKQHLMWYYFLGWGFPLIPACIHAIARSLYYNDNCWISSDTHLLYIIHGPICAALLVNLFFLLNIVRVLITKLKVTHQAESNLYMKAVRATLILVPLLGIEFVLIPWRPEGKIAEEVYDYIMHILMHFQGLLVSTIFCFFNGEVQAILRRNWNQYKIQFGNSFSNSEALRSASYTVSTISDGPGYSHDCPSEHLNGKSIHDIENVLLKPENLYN
Chain of hAM1 receptor (O60895 43-175 partner): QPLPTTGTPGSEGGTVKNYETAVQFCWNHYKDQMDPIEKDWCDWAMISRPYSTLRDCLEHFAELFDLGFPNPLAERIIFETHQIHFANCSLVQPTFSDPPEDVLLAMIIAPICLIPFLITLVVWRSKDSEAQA

SMILES | EC50 (hAMY3 receptor) [nM] | EC50 (hAM1 receptor) [µM] | Max ThT signal (%) [1] [%]
CC[C@H](C)[C@H](NC(=O)[C@H](CCC(N)=O)NC(=O)[C@H](Cc1c[nH]cn1)NC(=O)[C@H](C)NC(=O)[C@H](CC(C)C)NC(=O)[C@H](CCCNC(=N)N)NC(=O)[C@H](CCC(N)=O)NC(=O)[C@@H](NC(=O)[C@@H](NC(=O)[C@@H]1CSSC[C@H](NC(=O)CN)C(=O)N[C@@H](CCCNC(=N)N)C(=O)N[C@@H]([C@@H](C)O)C(=O)NCC(=O)N[C@@H]([C@@H](C)O)C(=O)N1)[C@@H](C)O)C(C)C)C(=O)N[C@@H](Cc1ccc(O)cc1)C(=O)N[C@@H](CCC(N)=O)C(=O)N[C@@H](Cc1ccccc1)C(=O)N[C@H](C(=O)N[C@@H](CC(=O)O)C(=O)N[C@@H](CCCCN)C(=O)N[C@@H](Cc1ccccc1)C(=O)N[C@@H](CCCCN)C(=O)N[C@@H](CC(=O)O)C(=O)N[C@@H](CC(N)=O)C(=O)N[C@H](C(=O)N[C@@H](C)C(=O)N1CCC[C@H]1C(=O)N[C@@H](CCCNC(=N)N)C(=O)N[C@@H](CO)C(=O)N[C@@H](CCCCN)C(=O)N[C@H](C(=O)N[C@@H](CO)C(=O)N1CCC[C@H]1C(=O)N[C@@H](CCC(N)=O)C(=O)N[C@@H](CCCCN)C(=O)N1C[C@H](O)C[C@H]1C(N)=O)[C@@H](C)CC)C(C)C)[C@@H](C)O [compound 206] (H-GCRTGTCTVQRLAHQIYQFTDKFKDNVAPRSKISPQK[Hyp]-NH2; disulfide 2-7; N-terminus assumed) | 0.13 | > 5 | 1.500
CC[C@H](C)[C@H](NC(=O)[C@H](CCC(N)=O)NC(=O)[C@H](Cc1c[nH]cn1)NC(=O)[C@H](C)NC(=O)[C@H](CC(C)C)NC(=O)[C@H](CCCNC(=N)N)NC(=O)[C@H](CCC(N)=O)NC(=O)[C@@H](NC(=O)[C@@H](NC(=O)[C@@H]1CSSC[C@H](NC(=O)CN)C(=O)N[C@@H](CCCNC(=N)N)C(=O)N[C@@H](Cc2ccccc2)C(=O)NCC(=O)N[C@@H]([C@@H](C)O)C(=O)N1)[C@@H](C)O)C(C)C)C(=O)N[C@@H](Cc1ccc(O)cc1)C(=O)N[C@@H](CCC(N)=O)C(=O)N[C@@H](Cc1ccccc1)C(=O)N[C@H](C(=O)N[C@@H](CC(=O)O)C(=O)N[C@@H](CCCCN)C(=O)N[C@@H](Cc1ccccc1)C(=O)N[C@@H](CCCCN)C(=O)N[C@@H](CC(=O)O)C(=O)N[C@@H](CC(N)=O)C(=O)N[C@H](C(=O)N[C@@H](C)C(=O)N1CCC[C@H]1C(=O)N[C@@H](CCCNC(=N)N)C(=O)N[C@@H](CO)C(=O)N[C@@H](CCCCN)C(=O)N[C@H](C(=O)N[C@@H](CO)C(=O)N1CCC[C@H]1C(=O)N[C@@H](CCC(N)=O)C(=O)N[C@H](C(=O)N1C[C@H](O)C[C@H]1C(N)=O)[C@@H](C)O)[C@@H](C)CC)C(C)C)[C@@H](C)O [compound 212] (H-GCRFGTCTVQRLAHQIYQFTDKFKDNVAPRSKISPQT[Hyp]-NH2; disulfide 2-7; N-terminus assumed) | 0.153 | > 5 | 1.900
CC[C@H](C)[C@H](NC(=O)[C@H](CCC(N)=O)NC(=O)[C@H](Cc1c[nH]cn1)NC(=O)[C@H](C)NC(=O)[C@H](CC(C)C)NC(=O)[C@H](CCCNC(=N)N)NC(=O)[C@H](CCC(N)=O)NC(=O)[C@@H](NC(=O)[C@@H](NC(=O)[C@@H]1CSSC[C@H](NC(=O)CN)C(=O)N[C@@H](CCCNC(=N)N)C(=O)N[C@@H]([C@@H](C)O)C(=O)NCC(=O)N[C@@H]([C@@H](C)O)C(=O)N1)[C@@H](C)O)C(C)C)C(=O)N[C@@H](Cc1c[nH]c2ccccc12)C(=O)N[C@@H](CCC(N)=O)C(=O)N[C@@H](Cc1ccccc1)C(=O)N[C@H](C(=O)N[C@@H](CC(=O)O)C(=O)N[C@@H](CCCCN)C(=O)N[C@@H](Cc1ccccc1)C(=O)N[C@@H](CCCCN)C(=O)N[C@@H](CC(=O)O)C(=O)N[C@@H](CC(N)=O)C(=O)N[C@H](C(=O)N[C@@H](C)C(=O)N1CCC[C@H]1C(=O)N[C@@H](CCCNC(=N)N)C(=O)N[C@@H](CO)C(=O)N[C@@H](CCCCN)C(=O)N[C@H](C(=O)N[C@@H](CO)C(=O)N1CCC[C@H]1C(=O)N[C@@H](CCC(N)=O)C(=O)N[C@H](C(=O)N1C[C@H](O)C[C@H]1C(N)=O)[C@@H](C)O)[C@@H](C)CC)C(C)C)[C@@H](C)O [compound 213] (H-GCRTGTCTVQRLAHQIWQFTDKFKDNVAPRSKISPQT[Hyp]-NH2; disulfide 2-7) | 0.153 | > 5 | 6.500

Results, then the compound that gave them:

EC50 (hAMY3 receptor) [nM] | EC50 (hAM1 receptor) [µM] | Max ThT signal (%) [1] [%] | SMILES
0.184 | > 5 | 11.700 | CC[C@H](C)[C@H](NC(=O)[C@H](CCC(N)=O)NC(=O)[C@H](Cc1c[nH]cn1)NC(=O)[C@H](C)NC(=O)[C@H](CC(C)C)NC(=O)[C@H](CCCNC(=N)N)NC(=O)[C@H](CCC(N)=O)NC(=O)[C@@H](NC(=O)[C@@H](NC(=O)[C@@H]1CSSC[C@H](NC(=O)CN)C(=O)N[C@@H](CCCNC(=N)N)C(=O)N[C@@H](CCSC)C(=O)NCC(=O)N[C@@H]([C@@H](C)O)C(=O)N1)[C@@H](C)O)C(C)C)C(=O)N[C@@H](Cc1ccc(O)cc1)C(=O)N[C@@H](CCC(N)=O)C(=O)N[C@@H](Cc1ccccc1)C(=O)N[C@H](C(=O)N[C@@H](CC(=O)O)C(=O)N[C@@H](CCCCN)C(=O)N[C@@H](CC(=O)O)C(=O)N[C@@H](CCCCN)C(=O)N[C@@H](CC(=O)O)C(=O)N[C@@H](CC(N)=O)C(=O)N[C@H](C(=O)N[C@@H](C)C(=O)N1CCC[C@H]1C(=O)N[C@@H](CO)C(=O)N[C@@H](CO)C(=O)N[C@@H](CCCCN)C(=O)N[C@H](C(=O)N[C@@H](CO)C(=O)N1CCC[C@H]1C(=O)N[C@@H](CCC(N)=O)C(=O)N[C@H](C(=O)N1C[C@H](O)C[C@H]1C(N)=O)[C@@H](C)O)[C@@H](C)CC)C(C)C)[C@@H](C)O [compound 222] (H-GCRMGTCTVQRLAHQIYQFTDKDKDNVAPSSKISPQT[Hyp]-NH2; disulfide 2-7; N-terminus assumed)
0.186 | > 5 | 27.000 | CC[C@H](C)[C@H](NC(=O)[C@H](CCC(N)=O)NC(=O)[C@H](Cc1c[nH]cn1)NC(=O)[C@H](C)NC(=O)[C@H](CC(C)C)NC(=O)[C@H](CCCNC(=N)N)NC(=O)[C@H](CCC(N)=O)NC(=O)[C@@H](NC(=O)[C@@H](NC(=O)[C@@H]1CSSC[C@H](NC(=O)CN)C(=O)N[C@@H](CCCNC(=N)N)C(=O)N[C@@H]([C@@H](C)O)C(=O)NCC(=O)N[C@@H]([C@@H](C)O)C(=O)N1)[C@@H](C)O)C(C)C)C(=O)N[C@@H](Cc1ccc(O)cc1)C(=O)N[C@@H](CCC(N)=O)C(=O)N[C@@H](Cc1ccccc1)C(=O)N[C@H](C(=O)N[C@@H](CC(N)=O)C(=O)N[C@@H](CCCCN)C(=O)N[C@@H](CC(=O)O)C(=O)N[C@@H](CCCCN)C(=O)N[C@@H](CC(=O)O)C(=O)N[C@@H](CC(N)=O)C(=O)N[C@H](C(=O)N[C@@H](C)C(=O)N1CCC[C@H]1C(=O)N[C@@H](CCCNC(=N)N)C(=O)N[C@@H](CO)C(=O)N[C@@H](CCCCN)C(=O)N[C@H](C(=O)N[C@@H](CO)C(=O)N1CCC[C@H]1C(=O)N[C@@H](CCC(N)=O)C(=O)N[C@H](C(=O)N[C@@H](Cc1c[nH]c2ccccc12)C(N)=O)[C@@H](C)O)[C@@H](C)CC)C(C)C)[C@@H](C)O [compound 226] (H-GCRTGTCTVQRLAHQIYQFTNKDKDNVAPRSKISPQTW-NH2; disulfide 2-7; N-terminus assumed)
0.235 | 4.25 | 0.300 | CC[C@H](C)[C@H](NC(=O)[C@H](CCC(N)=O)NC(=O)[C@H](Cc1c[nH]cn1)NC(=O)[C@H](C)NC(=O)[C@H](CC(C)C)NC(=O)[C@H](CCCNC(=N)N)NC(=O)[C@H](CCC(N)=O)NC(=O)[C@@H](NC(=O)[C@@H](NC(=O)[C@@H]1CSSC[C@H](NC(=O)CN)C(=O)N[C@@H](CCCNC(=N)N)C(=O)N[C@@H]([C@@H](C)O)C(=O)NCC(=O)N[C@@H]([C@@H](C)O)C(=O)N1)[C@@H](C)O)C(C)C)C(=O)N[C@@H](Cc1ccc(O)cc1)C(=O)N[C@@H](CCC(N)=O)C(=O)N[C@@H](Cc1ccccc1)C(=O)N[C@H](C(=O)N[C@@H](CC(N)=O)C(=O)N[C@@H](CCCCN)C(=O)N[C@@H](CC(=O)O)C(=O)N[C@@H](CCCCN)C(=O)N[C@@H](CC(=O)O)C(=O)N[C@@H](CC(N)=O)C(=O)N[C@H](C(=O)N[C@@H](C)C(=O)N1CCC[C@H]1C(=O)N[C@@H](CCCNC(=N)N)C(=O)N[C@@H](CO)C(=O)N[C@@H](CCCCN)C(=O)N[C@H](C(=O)N[C@@H](CO)C(=O)N1CCC[C@H]1C(=O)N[C@@H](CCC(N)=O)C(=O)N[C@H](C(=O)N[C@@H](CCSC)C(N)=O)[C@@H](C)O)[C@@H](C)CC)C(C)C)[C@@H](C)O [compound 237] (H-GCRTGTCTVQRLAHQIYQFTNKDKDNVAPRSKISPQTM-NH2; disulfide 2-7)
